Assays:
GSPT1 = biological target: T1, GSPT1 (Homo sapiens, UniProt P15170+Q96SW2); assay: Immunofluorescence assay for activity to degrade GSPT1 in CAL-51 cells; assay type: cell-based; details: 6 h treatment, read-out: IF Class (GSPT1 degradation, DC50)
T1 construct: CAL-51 cells were purchased from DSMZ (cat. Number ACC302); host or cells: CAL-51
Method: Example 147: Compound Activity by Immunofluorescence Assay
The representative compounds were tested in an immunofluorescence assay for their activity to degrade GSPT1. CAL-51 cells were purchased from DSMZ (cat. Number ACC302), sub-cultured in 90% Dulbecco's MEM (4.5 g/L glucose, Gibco 11965)+10% heat inactivated FBS (BioConcept, 2-01F136I) and incubated at 37° C., 5% CO2. For the assay imaging microtiter plate Cell Carrier 96 Ultra (Perkin Elmer 6055302) were pre-coated with Fibronectin (Sigma F085, 30 μL at 0.2 μg/mL) in PBS (100 μL, Gibco 14190) for 45 min at room temperature, rinsed with PBS and CAL-51 cells (30K cells/well) were plated and let to adhere overnight. Cells were treated with compounds typically using a serial dilution ranging from 30 μM to 0.1 nM for 6 h. Compounds were stored at 10 mM DMSO stocks. Vehicle (DMSO), positive (CC-885, 10 μM) and rescue controls (positive control plus 0.2 μM bortezomib) were also included at this stage. Cells were subsequently rinsed with PBS and fixed in 10% Formalin solution (50 μL, Sigma HT5011)) for 20 mins at room temperature. Following three consecutive PBS washes (100 μL), cells were permeabilized in 0.1% Triton X-100 in PBS (Sigma 93443, 50 μL) for 15 min. at room temperature. Following three further PBS washes, 50 μL blocking buffer (1% BSA, Sigma A4503, in PBS) was added for 45 min for signal-to noise reduction. Primary antibody (human GSPT1, Sigma HPA052488) was diluted in blocking buffer (dil.1/300, 35 μL/well) and incubated with the cells overnight at 4° C. After three PBS washes, Alexa-fluor 488 coupled secondary antibodies (Invitrogen, A32731, dil. 1/1000), Alexa-fluor 647-Phalloidin (Invitrogen, A22287, dil. 1/200) and DAPI (Thermo, #62248, dil. 1/1000) were diluted in blocking buffer and incubated with the samples for 2 h at room temperature. After three final PBS washes, samples were conserved in 100 μL PBS in the dark, until measurement. Image acquisition was performed on the Operetta High-Content Imager (Perkin-Elmer). Fluorescence intensity of […] (GSPT1), Alexa-Fluor 647 (Actin) and DAPI (Nucleus) were measured. For the determination of GSPT1 DC50 values, a custom algorithm implemented in the PerkinElmer image analysis software Harmony-Acapella® was developed. After user-defined setting of adjustment parameters, the analysis was run identically without human intervention for all image fields. DAPI staining of the nuclei was used to determine the location of cells using standard nuclei detection modules. Segmentation artifacts were removed by threshold-based filters for area, roundness and intensity. The outline of the cells was determined analogously from the sum of the normalized, smoothed DAPI and Actin channel, starting from each nucleus. The Alexa-Fluor 488 (GSPT1) signal intensity in each cell was finally measured, in order to obtain a Mean intensity per cell. GSPT1 degradation (DC50) was calculated after normalization to controls and data import in CDD vault Database, using non-linear regression.
(§1) In Table 2, each compound is assigned a class (HTRF class) indicating the ability for Cereblon binding by means of their HTRF IC50 values according to […]: A, B, C or D. According to the code, A represents an IC50 value of ≤100 nM, B represents an IC50 value>100 nM and ≤1000 nM, C represents an IC50 value>1000 nM. IF Class assigns each compound a code indicating the ability for GSPT1 degradation: A, B or C. According to the code, A represents a DC50 value of ≤30 nM, B represents a DC50 value>30 nM and ≤300 nM and C represents a DC50 value of >300 nM.

CRBN-DDB1 = CRBN-DDB1 (Homo sapiens, UniProt Q96SW2); assay: Compound binding to CRBN by HTRF assay; details: CRBN-DDB1 2.5 nM, Cy5-Thalidomide 100 nM, 30 min at ambient temperature; read-out: HTRF Class (Cereblon binding, HTRF IC50)
Method: Example 146: Compound Binding to CRBN by HTRF Assay
Compound activity was monitored in a Homogenous Time-Resolved Fluorescence (HTRF) assay using 1-[5-({2-[2-(2-{[2-(2,6-dioxopiperidin-3-yl)-1,3-dioxo-2,3-dihydro-1H-isoindol-4-yl]oxy}acetamido)ethoxy]ethyl}carbamoyl)pentyl]-3,3-dimethyl-2-[(1E,3E)-5-[(2E)-1,3,3-trimethyl-5-sulfo-2,3-dihydro-1H-indol-2-ylidene]penta-1,3-dien-1-yl]-3H-indol-1-ium-5-sulfonate as a fluorescent probe. Biochemical assays were conducted in Greiner white 384 well HiBase plates (Cat. No 784075-25) in 10 μL total volume. A one pot detection solution of CRBN-DDB1 (2.5 nM), Anti-His Terbium Cryptate Gold (1X, PerkinElmer Cat. #: 61HI2TLB), and Cy5-Thalidomide (100 nM, Tenova Cat.: T52461) was prepared in 20 mM HEPES, 20 mM NaCl, 0.2 mM TCEP, 0.2 mM EDTA, and 0.005% Tween20 was dispensed to each assay plate. Compounds were stored in dry, ambient temperatures at 10 mM. A 10-point, 1:3 dilution series was prepared from 10 mM stock concentrations in Echo-compatible LDV plates. 10 nL of each compound dilution series was dispensed into assays wells using an Echo 650 (Labcyte inc. USA). 10 nL of 10 mM Lenalidomide was transferred into the active-control wells for the assay and 10 nL of DMSO was transferred into the neutral-control wells. The assay was then allowed to incubate for 30 min at ambient temperature after transferring compound. Plate measurements were taken on a Pherastar FSX (BMG Labtech, Germany) using the HTRF Red filter (Ex. 337 nm, em1: 620 nm, em2: 665 nm) (Flashes: 50, Integration time: 60-400 us, Z-height: 10 mm, Ratio-multiplier: 10,000). The HTRF signal was then subsequently normalized to the neutral and active controls. Analysis and IC50 values were derived using KNIME analytics (KNIME Zurich) transformation and fitting within Collaborative Drug Discovery (Collaborative Drug Discovery USA). Ki was derived from the geometric mean of the IC50 values using the Cheng-Prustoff transformation.
as §1

T1 sequence (P15170 whole entry): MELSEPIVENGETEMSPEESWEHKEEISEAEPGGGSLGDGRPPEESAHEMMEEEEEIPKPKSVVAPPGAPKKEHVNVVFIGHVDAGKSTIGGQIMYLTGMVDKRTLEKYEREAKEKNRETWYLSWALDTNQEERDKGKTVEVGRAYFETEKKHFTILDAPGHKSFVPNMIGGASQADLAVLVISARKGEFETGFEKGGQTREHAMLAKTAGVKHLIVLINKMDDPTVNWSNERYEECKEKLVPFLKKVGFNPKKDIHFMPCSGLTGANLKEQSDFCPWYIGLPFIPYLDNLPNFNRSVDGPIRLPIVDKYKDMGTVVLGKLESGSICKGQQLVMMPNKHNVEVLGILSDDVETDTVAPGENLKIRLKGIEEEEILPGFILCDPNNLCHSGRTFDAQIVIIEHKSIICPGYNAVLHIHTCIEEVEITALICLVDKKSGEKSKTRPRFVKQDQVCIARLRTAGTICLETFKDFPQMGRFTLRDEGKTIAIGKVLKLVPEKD
T1 sequence (Q96SW2 whole entry): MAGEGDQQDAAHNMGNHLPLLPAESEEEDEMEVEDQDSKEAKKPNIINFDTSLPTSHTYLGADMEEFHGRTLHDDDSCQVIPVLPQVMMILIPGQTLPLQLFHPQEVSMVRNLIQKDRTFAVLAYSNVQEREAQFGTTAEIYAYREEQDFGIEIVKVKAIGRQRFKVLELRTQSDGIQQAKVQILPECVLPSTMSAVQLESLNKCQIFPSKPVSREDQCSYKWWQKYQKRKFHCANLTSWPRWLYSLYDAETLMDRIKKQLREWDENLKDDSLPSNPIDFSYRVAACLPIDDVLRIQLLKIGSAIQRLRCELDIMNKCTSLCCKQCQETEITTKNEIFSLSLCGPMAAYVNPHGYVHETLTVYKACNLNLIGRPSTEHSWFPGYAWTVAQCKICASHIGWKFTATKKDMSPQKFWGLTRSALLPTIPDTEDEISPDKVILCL
T1 sequence (Q16531 2-1140 partner limits assumed): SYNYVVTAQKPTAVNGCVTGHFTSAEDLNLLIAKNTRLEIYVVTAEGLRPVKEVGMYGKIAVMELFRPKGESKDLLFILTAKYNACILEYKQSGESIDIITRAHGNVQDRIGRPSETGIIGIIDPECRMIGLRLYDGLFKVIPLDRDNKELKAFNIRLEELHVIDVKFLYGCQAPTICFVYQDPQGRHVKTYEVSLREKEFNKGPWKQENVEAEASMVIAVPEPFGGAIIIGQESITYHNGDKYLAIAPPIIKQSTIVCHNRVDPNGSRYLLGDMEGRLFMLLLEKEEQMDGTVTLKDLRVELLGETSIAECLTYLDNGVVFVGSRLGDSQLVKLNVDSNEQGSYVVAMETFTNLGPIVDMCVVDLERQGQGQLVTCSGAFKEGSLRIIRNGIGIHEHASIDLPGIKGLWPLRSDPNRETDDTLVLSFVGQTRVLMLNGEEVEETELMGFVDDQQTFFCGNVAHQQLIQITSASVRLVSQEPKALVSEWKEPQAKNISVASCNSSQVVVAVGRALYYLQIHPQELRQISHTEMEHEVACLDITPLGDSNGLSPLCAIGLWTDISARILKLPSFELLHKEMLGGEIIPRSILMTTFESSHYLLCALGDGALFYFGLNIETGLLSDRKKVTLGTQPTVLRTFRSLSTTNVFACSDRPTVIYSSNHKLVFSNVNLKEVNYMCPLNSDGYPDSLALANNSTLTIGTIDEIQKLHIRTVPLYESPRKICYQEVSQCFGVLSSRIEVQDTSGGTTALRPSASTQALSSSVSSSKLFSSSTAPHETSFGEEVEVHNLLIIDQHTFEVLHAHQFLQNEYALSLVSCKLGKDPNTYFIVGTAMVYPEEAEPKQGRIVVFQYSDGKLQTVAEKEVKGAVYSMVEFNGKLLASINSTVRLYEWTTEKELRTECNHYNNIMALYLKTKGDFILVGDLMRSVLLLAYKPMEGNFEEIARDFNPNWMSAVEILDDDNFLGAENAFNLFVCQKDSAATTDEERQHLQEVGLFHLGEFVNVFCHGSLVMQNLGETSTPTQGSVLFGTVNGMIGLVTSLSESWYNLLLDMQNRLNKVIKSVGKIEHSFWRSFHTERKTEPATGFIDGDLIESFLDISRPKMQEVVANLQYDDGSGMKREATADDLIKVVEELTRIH
Sequence of CRBN-DDB1 (Q96SW2 whole entry): as the sequence (Q96SW2 whole entry) above
Sequence of CRBN-DDB1 (Q16531 whole entry partner): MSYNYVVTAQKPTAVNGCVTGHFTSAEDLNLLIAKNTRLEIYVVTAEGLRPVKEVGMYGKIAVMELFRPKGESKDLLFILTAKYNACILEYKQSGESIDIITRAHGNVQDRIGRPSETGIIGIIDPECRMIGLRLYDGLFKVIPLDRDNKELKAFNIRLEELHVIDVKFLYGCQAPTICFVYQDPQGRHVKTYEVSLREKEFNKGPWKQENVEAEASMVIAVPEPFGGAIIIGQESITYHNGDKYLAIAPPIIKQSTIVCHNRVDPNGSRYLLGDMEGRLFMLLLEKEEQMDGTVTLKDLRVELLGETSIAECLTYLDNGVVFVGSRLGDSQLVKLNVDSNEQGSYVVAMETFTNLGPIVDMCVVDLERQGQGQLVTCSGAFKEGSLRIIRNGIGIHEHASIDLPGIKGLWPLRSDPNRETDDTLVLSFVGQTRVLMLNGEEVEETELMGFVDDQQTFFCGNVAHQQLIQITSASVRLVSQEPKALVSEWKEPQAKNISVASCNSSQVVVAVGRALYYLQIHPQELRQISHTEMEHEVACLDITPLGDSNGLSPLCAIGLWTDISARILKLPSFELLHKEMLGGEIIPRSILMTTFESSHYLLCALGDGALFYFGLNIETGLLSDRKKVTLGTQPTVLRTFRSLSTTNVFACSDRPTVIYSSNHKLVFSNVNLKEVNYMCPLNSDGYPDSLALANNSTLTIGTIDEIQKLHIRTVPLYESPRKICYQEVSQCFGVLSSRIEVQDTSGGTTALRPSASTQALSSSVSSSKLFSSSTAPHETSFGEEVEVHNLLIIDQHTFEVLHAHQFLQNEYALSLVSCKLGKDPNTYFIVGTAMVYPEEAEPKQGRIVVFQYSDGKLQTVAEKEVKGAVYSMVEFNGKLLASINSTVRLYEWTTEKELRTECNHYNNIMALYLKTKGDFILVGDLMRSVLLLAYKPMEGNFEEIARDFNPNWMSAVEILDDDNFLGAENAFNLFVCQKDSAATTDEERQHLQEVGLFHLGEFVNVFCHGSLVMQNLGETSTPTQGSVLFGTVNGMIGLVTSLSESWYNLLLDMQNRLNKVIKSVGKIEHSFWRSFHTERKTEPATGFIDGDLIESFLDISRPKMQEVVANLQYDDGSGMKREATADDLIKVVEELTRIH

Row | DC50 (GSPT1) [nM] | IC50 (CRBN-DDB1) [nM] | Compound
1 | 30 to 300 | 100 to 1000 | O=C1CCC(c2c(F)cc(N3CC(NC(=O)Nc4cc(F)cc(Cl)c4)C3)cc2F)C(=O)N1 (stereo not drawn) [Compound 16, 1-(3-chloro-5-fluorophenyl)-3-(1-(4-(2,6-dioxopiperidin-3-yl)-3,5-difluorophenyl)azetidin-3-yl)urea]
2 | 30 to 300 | 100 to 1000 | O=C1CCC(c2c(F)cc(N3CC(NC(=O)Nc4cccc(OC5CC5)c4)C3)cc2F)C(=O)N1 (stereo not drawn) [Compound 17, 1-(3-cyclopropoxyphenyl)-3-(1-(4-(2,6-dioxopiperidin-3-yl)-3,5-difluorophenyl)azetidin-3-yl)urea]
3 | 30 to 300 | 100 to 1000 | O=C1CCC(c2c(F)cc(N3CC(NC(=O)Nc4cccc(OC(F)(F)F)c4)C3)cc2F)C(=O)N1 (stereo not drawn) [Compound 18, 1-(1-(4-(2,6-dioxopiperidin-3-yl)-3,5-difluorophenyl)azetidin-3-yl)-3-(3-(trifluoromethoxy)phenyl)urea]
4 | ≤ 30 | 100 to 1000 | O=C1CCC(c2c(F)cc(N3CC(NC(=O)Nc4ccc(F)c(OC(F)F)c4)C3)cc2F)C(=O)N1 (stereo not drawn) [Compound 19, 1-(3-(difluoromethoxy)-4-fluorophenyl)-3-(1-(4-(2,6-dioxopiperidin-3-yl)-3,5-difluorophenyl)azetidin-3-yl)urea]
5 | ≤ 30 | 100 to 1000 | Cc1ccc(NC(=O)NC2CN(c3cc(F)c(C4CCC(=O)NC4=O)c(F)c3)C2)cc1OC(F)F (stereo not drawn) [Compound 21, 1-(3-(difluoromethoxy)-4-methylphenyl)-3-(1-(4-(2,6-dioxopiperidin-3-yl)-3,5-difluorophenyl)azetidin-3-yl)urea]
6 | 30 to 300 | 100 to 1000 | O=C1CCC(c2c(F)cc(N3CC(NC(=O)Nc4cc(F)cc(OC(F)F)c4)C3)cc2F)C(=O)N1 (stereo not drawn) [Compound 22, 1-(3-(difluoromethoxy)-5-fluorophenyl)-3-(1-(4-(2,6-dioxopiperidin-3-yl)-3,5-difluorophenyl)azetidin-3-yl)urea]
7 | ≤ 30 | ≤ 100 | Cc1ccccc1-c1ccc(NC(=O)NC2CN(c3cc(F)c(C4CCC(=O)NC4=O)c(F)c3)C2)cn1 (stereo not drawn) [Compound 23, 1-(1-(4-(2,6-dioxopiperidin-3-yl)-3,5-difluorophenyl)azetidin-3-yl)-3-(6-(o-tolyl)pyridin-3-yl)urea]
8 | ≤ 30 | ≤ 100 | Cc1c(Cl)cc(NC(=O)NC2CN(c3cc(F)c(C4CCC(=O)NC4=O)c(F)c3)C2)cc1CN1CCOCC1 (stereo not drawn) [Compound 24, 1-(3-chloro-4-methyl-5-(morpholinomethyl)phenyl)-3-(1-(4-(2,6-dioxopiperidin-3-yl)-3,5-difluorophenyl)azetidin-3-yl) urea]
9 | > 300 | ≤ 100 | O=C1CCC(c2c(F)cc(N3CC(NC(=O)Nc4cc(-c5ccccc5)ccn4)C3)cc2F)C(=O)N1 (stereo not drawn) [Compound 25, 1-(1-(4-(2,6-dioxopiperidin-3-yl)-3,5-difluorophenyl)azetidin-3-yl)-3-(4-phenylpyridin-2-yl) urea]
10 | ≤ 30 | ≤ 100 | O=C1CCC(c2c(F)cc(N3CC(NC(=O)Nc4ccc(-c5ccccn5)cc4)C3)cc2F)C(=O)N1 (stereo not drawn) [Compound 26, 1-(1-(4-(2,6-dioxopiperidin-3-yl)-3,5-difluorophenyl)azetidin-3-yl)-3-(4-(pyridin-2-yl)phenyl)urea]
11 | 30 to 300 | ≤ 100 | O=C1CCC(c2c(F)cc(N3CC(NC(=O)Nc4cc(OC(F)(F)F)ccn4)C3)cc2F)C(=O)N1 (stereo not drawn) [Compound 27, 1-(1-(4-(2,6-dioxopiperidin-3-yl)-3,5-difluorophenyl)azetidin-3-yl)-3-(4-(trifluoromethoxy)pyridin-2-yl)urea]
12 | 30 to 300 | 100 to 1000 | O=C1CCC(c2c(F)cc(N3CC(NC(=O)Nc4cc(Cl)cc(OC(F)F)c4)C3)cc2F)C(=O)N1 (stereo not drawn) [Compound 28, 1-(3-chloro-5-(difluoromethoxy)phenyl)-3-(1-(4-(2,6-dioxopiperidin-3-yl)-3,5-difluorophenyl)azetidin-3-yl)urea]
13 | 30 to 300 | > 1000 | Cc1ccc(NC(=O)OC2CN(c3cc(Cl)c(C4CCC(=O)NC4=O)cc3F)C2)cc1Cl (stereo not drawn) [Compound 29]
14 | ≤ 30 | ≤ 100 | C[C@@H]1CCCN1c1ccc(NC(=O)NC2CN(c3cc(F)c(C4CCC(=O)NC4=O)c(F)c3)C2)cn1 (stereo partly drawn) [Compound 30, 1-(1-(4-(2,6-dioxopiperidin-3-yl)-3,5-difluorophenyl)azetidin-3-yl)-3-(6-((R)-2-methylpyrrolidin-1-yl)pyridin-3-yl)urea]
15 | > 300 | 100 to 1000 | Cc1cc(C)cc(NC(=O)OC2CN(c3ccc(C4CCC(=O)NC4=O)c(Cl)c3)C2)c1 (stereo not drawn) [Compound 31, 1-(3-chloro-4-(2,6-dioxopiperidin-3-yl)phenyl)azetidin-3-yl (3,5-dimethylphenyl)carbamate]
16 | ≤ 30 | 100 to 1000 | O=C1CCC(c2c(F)cc(N3CC(OC(=O)Nc4ccc(F)c(OC(F)F)c4)C3)cc2F)C(=O)N1 (stereo not drawn) [Compound 32, 1-(4-(2,6-dioxopiperidin-3-yl)-3,5-difluorophenyl)azetidin-3-yl (3-(difluoromethoxy)-4-fluorophenyl)carbamate]
17 | ≤ 30 | 100 to 1000 | O=C1CCC(c2c(F)cc(N3CC(OC(=O)Nc4cc(OC(F)(F)F)ccc4F)C3)cc2F)C(=O)N1 (stereo not drawn) [Compound 33, 1-(4-(2,6-dioxopiperidin-3-yl)-3,5-difluorophenyl)azetidin-3-yl (2-fluoro-5-(trifluoromethoxy)phenyl)carbamate]
18 | 30 to 300 | 100 to 1000 | O=C1CCC(c2c(F)cc(N3CC(OC(=O)Nc4cc(F)cc(Cl)c4)C3)cc2F)C(=O)N1 (stereo not drawn) [Compound 34, 1-(4-(2,6-dioxopiperidin-3-yl)-3,5-difluorophenyl)azetidin-3-yl(3-chloro-5-fluorophenyl)carbamate]
